How the values were obtained:
[1] = system: E. coli; details: cited from earlier work
[2] = system: B. subtilis; details: cited from earlier work
[3] = system: Psuedomonas aeruginosa; details: cited from earlier work
[4] = system: Streptococcus pneumoniae; details: cited from earlier work
[5] = system: Staphylococcus aureus; details: cited from earlier work
[6] = system: bacterial colonies; test: Antibacterial activity in the presence of biological serum (FIG. 1, number of bacterial colonies vs concentration); format: cell-based; details: after 24 hours in biological serum
Protocol: Due to their mechanism of action, such antibacterial peptides should not be susceptible to resistance. […] In FIG. 1, panels 100A and 100B show the number of bacterial colonies as a function of the concentration of pexiganan 101A/B and ID 1 103 A/B, after 2 and 24 hours respectively, in biological serum. […] Accordingly, a peptide alternative that kills bacteria by a mechanism similar to that of antibacterial peptides but without the biological susceptibility would provide greater protection against bacterial colonization.
FIG. 1 depicts the activity of ID 1 and an antibacterial peptide (pexiganan) in the presence of biological serum.

[7] = system: Escherichia coli; details: cited from earlier work
[8] = system: Enterococcus faecalis; details: cited from earlier work
[9] = system: Haemophilus influenzae; details: cited from earlier work

| Substance | E. coli MIC [1] | B. subtilis MIC [2] | also measured |
| --- | --- | --- | --- |
| H-NLys-Nssb-Nspe-Nssb-Nspe-NLys-Nspe-NLys-Nssb-Nssb-Nspe-NLys-NH2 [ID 15] | 3.1 µM | 15 µM | – |
| H—(NGlu-Nspe-Nspe)4-NH2 [ID 13] | >219 µM | >219 µM | – |
| H—(NLys)4-(Nspe)8-NH2 [ID 14] | 6.9 µM | 1.7 µM | – |
| H—(NLys-Nrpe-Nrpe)4-NH2 [ID 3] | 3.5 µM | .88 µM | – |
| H—(NLys-Nsmb-Nspe)4-NH2 [ID 7] | 7.4 µM | .95 µM | – |
| H—(NLys-Nspe-Nspe)2-NH2 [ID 4] | 27 µM | 27 µM | – |
| H—(NLys-Nspe-Nspe)3-NH2 [ID 5] | 9.1 µM | 1.2 µM | – |
| H—(NLys-Nspe-Nspe)4-NH2 [ID 1] | 3.5 µM | .88 µM | MIC [3]: 28 µM; MIC [4]: 1.7 to 3.4 µM; MIC [5]: 3.4 µM; Activity (number of bacterial colonies) in biological serum [6]: retains activity; MIC [7]: 14 to 28 µM; MIC [8]: 3.4 to 6.9 µM; MIC [9]: 6.9 µM |
| H—(NLys-Nspe-Nspe)5-NH2 [ID 6] | 5.5 µM | 1.4 µM | – |
| H—(NLys-Nspe-Nspe-NGlu-Nspe-Nspe)2-NH2 [ID 12] | >110 µM | 6.9 µM | – |
| H—(NLys-Nspe-Nspe-NLys-Nspe-L-Pro-(NLys-Nspe-Nspe)2-NH2 [ID 11] | 3.1 µM | 1.6 µM | – |
| H—(NLys-Nspe-Nspe-NLys-Nspe-NHis)2-NH2 [ID 10] | 3.5 µM | 6.9 µM | – |
| H—(NLys-Nspe-Nspe-NLys-Nspe-Nsna)2-NH2 [ID 9] | 3.3 µM | 1.6 µM | – |
| H—(NLys-Nssb-Nspe)4-NH2 [ID 2] | 31 µM | 3.9 µM | – |
| H—(NLys-Nssb-Nspe-NLys-Nssb-Nsna)2-NH2 [ID 8] | 7.2 µM | .93 µM | – |

— patent US20100069308A1, “Surfaces containing antibacterial polymers” (priority 2008, published 2010)
